# Patent US20250214967A1, “FAK DEGRADERS, PHARMACEUTICAL COMPOSITIONS, AND THERAPEUTIC APPLICATIONS” (Berrybio (Shanghai) Limited, priority 2022, published 2025)
# pIC50: −log10 of the molar value.
# Key:
# FAK [1] = target: T1, FAK (Homo sapiens (Human), UniProt Q05397); assay: FAK Degradation Assay (Western blot, FAK/GAPDH); format: cell-based; details: MDA-MB-231 cells, 24 h treatment, Western blot normalized to DMSO; for DC50: read-out: DC50 (half-maximal degradation concentration), FAK Degradation; for Dmax: read-out: Dmax (maximal degradation), FAK Degradation
# Description: H2122 (4×10^5), MIA PaCa-2 (6×10s), or MDA-MB-231 cells (6×10^5) per well were seeded into a 6-well plate containing 2 mL of complete culture medium (RPMI-1640 for H2122 and MDA-MB-231, and DMEM/F12 for MIA PaCa-2, supplemented with 10% FBS and 1% penicillin/streptomycin). The cells were cultured overnight at 37° C. in the presence of 5% C02 before treated with a compound in a series of concentrations for 24 h. The cells were then washed with ice-cold Dulbecco's phosphate-buffered saline (DPBS). A radioimmuno-precipitation assay (RIPA) buffer was added to lyse the cells on ice for 20 min. The cells were then scrapped using cell scraper and collected in a 1.5 mL tube, which was centrifuged at 14,000 g and 4° C. for 15 min. The supernatant was collected and the total protein concentration of each sample was determined using a PIERCE™ BCA protein assay kit. The supernatant was diluted to the same protein concentration with the RIPA buffer after the BCA assay. Samples of the same protein amount were mixed with 4× a lithium dodecyl sulfate (LDS) sample buffer and boiled at 95° C. for 5 min. The denatured samples were used for electrophoresis.
# For Western blot, the same volume containing ˜50 μg protein for each sample was loaded onto 4-12% Bis-Tris protein gel. The gel was run at 80 V for 0.5 h and at 120 V for 1 h. When the electrophoresis was completed, an IBLOT™ 2 gel transfer device was used to transfer FAK and GAPDH proteins at 20 V for 7 min. All the membranes were blocked in 5% nonfat dry milk in a TBST buffer at RT for 1 h and then incubated with primary antibodies (anti-FAK and anti-GAPDH) in a TBST buffer containing 5% BSA at 4° C. overnight. The membranes were washed with the TBST buffer and then incubated with secondary antibodies (goat anti-rabbit IgG H&L for FAK and goat anti-mouse IgG H&L for GAPDH) at room temperature for 1 h. Blots were visualized using an IMAGEQUANT™ LAS-4000. The chemiluminescent signals from ECL™ Western blotting reagents were captured. The band integrated intensity from each 16-bit blot image was used for quantitation. The FAK/GAPDH signal ratios of each sample were normalized using DMSO as a control and the normalized data for each compound were used to obtain its half-maximal degradation concentration (DC50) and maximal degradation (Dmax).
# Target sequence in this assay (Q05397 whole entry): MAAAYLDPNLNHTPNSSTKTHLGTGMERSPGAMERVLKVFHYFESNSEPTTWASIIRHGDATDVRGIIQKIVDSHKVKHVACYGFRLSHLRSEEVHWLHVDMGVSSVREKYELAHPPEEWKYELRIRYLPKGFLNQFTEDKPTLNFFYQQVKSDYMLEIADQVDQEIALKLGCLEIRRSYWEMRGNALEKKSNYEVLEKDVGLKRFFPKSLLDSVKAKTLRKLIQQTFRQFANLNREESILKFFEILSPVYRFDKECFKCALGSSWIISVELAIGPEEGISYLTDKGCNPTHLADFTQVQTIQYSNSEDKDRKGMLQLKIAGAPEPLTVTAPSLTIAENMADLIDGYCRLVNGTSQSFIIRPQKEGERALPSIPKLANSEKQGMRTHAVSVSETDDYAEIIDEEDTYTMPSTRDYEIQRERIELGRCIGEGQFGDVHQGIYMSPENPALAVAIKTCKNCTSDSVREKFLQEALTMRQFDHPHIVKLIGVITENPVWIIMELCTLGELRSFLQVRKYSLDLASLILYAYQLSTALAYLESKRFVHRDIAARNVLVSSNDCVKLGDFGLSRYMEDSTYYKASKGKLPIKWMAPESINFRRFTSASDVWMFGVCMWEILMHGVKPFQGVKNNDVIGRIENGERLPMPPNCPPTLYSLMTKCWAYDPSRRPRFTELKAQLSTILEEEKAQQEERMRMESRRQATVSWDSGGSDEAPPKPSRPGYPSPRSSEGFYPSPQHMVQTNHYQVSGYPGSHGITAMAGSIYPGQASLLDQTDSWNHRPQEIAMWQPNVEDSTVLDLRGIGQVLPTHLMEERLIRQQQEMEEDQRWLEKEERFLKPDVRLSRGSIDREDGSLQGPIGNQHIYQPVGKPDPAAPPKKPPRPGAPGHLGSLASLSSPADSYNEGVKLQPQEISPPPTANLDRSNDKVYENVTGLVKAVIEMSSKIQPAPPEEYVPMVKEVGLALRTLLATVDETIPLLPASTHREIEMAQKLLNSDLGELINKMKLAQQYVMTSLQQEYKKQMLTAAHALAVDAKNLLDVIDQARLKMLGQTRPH
# FAK [2] = target: T1, FAK; assay: FAK Kinase Assay (TR-FRET, LanthaScreen); format: biochemical; details: FAK 1 nM, ATP 6.8 μM, fluorescein-polyGT 0.2 μM, 30 min; read-out: IC50, FAK Inhibition
# Description: The inhibitory activity of a compound against FAK was determined in a buffer containing 5 mM HEPES, pH 7.5, 0.01% Triton, 0.5 mM EGTA, and 0.01% BRIJ™-35 in a 384-well assay plate. The assay was carried out in the presence of the FAK at 1 nM and ATP at 6.8 μM using fluorescein-polyGT (0.2 μM) as an FAK substrate. Each assay mixture was incubated at room temperature for 30 min. A LANTHASCREEN® Tb-PY20 antibody was added to each well to stop the enzymatic reaction. The plate was incubated at room temperature for 60 min before reading on an ENVISION using TR-FRET module (excitation at 340 nm and emission at 520 nm and 495 nm).
# Target sequence in this assay (Q05397 whole entry, species assumed): as the sequence (Q05397 whole entry) above
Structure (SMILES),DC50 (FAK [1]) [nM],Dmax (FAK [1]) [%],pIC50 (FAK [2])
"Cc1cc(OCCOCCOCCOc2ccc3c(c2)C(=O)N(C2CCC(=O)NC2=O)C3=O)ccc1Nc1ncc(C(F)(F)F)c(NCc2cccc(N(C)S(C)(=O)=O)c2)n1 (centres unmarked) [Compound A1, N-(3-(((2-((4-(2-(2-(2-((2-(2,6-dioxopiperidin-3-yl)-1,3-dioxoisoindolin-5-yl)oxy)ethoxy)ethoxy)ethoxy)-2-methylphenyl)amino)-5-(trifluoromethyl)pyrimidin-4-yl)-amino)methyl)phenyl)-N-methylmethanesulfonamide]",7,89,8.35
"Cc1cc(OCCOCCOCCOc2ccc3c(c2)C(=O)N(C2CCC(=O)NC2=O)C3=O)ccc1Nc1ncc(C(F)(F)F)c(NCc2cccc(P(C)(C)=O)c2)n1 (centres unmarked) [Compound A3, 5-(2-(2-(2-(4-((4-((3-(Dimethylphosphoryl)benzyl)amino)-5-(trifluoromethyl)-pyrimidin-2-yl)amino)-3-methylphenoxy)ethoxy)ethoxy)ethoxy)-2-(2,6-dioxopiperidin-3-yl)-isoindoline-1,3-dione]",1980,100,6.65
"CN(c1nccnc1CNc1nc(Nc2ccc(C(=O)NC3CCN(CC4CCN(c5ccc6c(c5)C(=O)N(C5CCC(=O)NC5=O)C6=O)CC4)CC3)cc2)ncc1C(F)(F)F)S(C)(=O)=O (centres unmarked) [Compound A4, N-(1-((1-(2-(2,6-dioxopiperidin-3-yl)-1,3-dioxoisoindolin-5-yl)piperidin-4-yl)methyl)piperidin-4-yl)-4-((4-(((3-(N-methylmethylsulfonamido)pyrazin-2-yl)methyl)amino)-5-(trifluoromethyl)pyrimidin-2-yl)amino)benzamide]",0.5,92,9.40
"CN(c1nccnc1CNc1nc(Nc2ccc(C(=O)N3CCC(N4CCN(c5ccc6c(c5)C(=O)N(C5CCC(=O)NC5=O)C6=O)CC4)CC3)cc2)ncc1C(F)(F)F)S(C)(=O)=O (centres unmarked) [Compound A5, N-(3-(((2-((4-(4-(4-(2-(2,6-dioxopiperidin-3-yl)-1,3-dioxoisoindolin-5-yl)-piperazin-1-yl)piperidine-1-carbonyl)phenyl)amino)-5-(trifluoromethyl)pyrimidin-4-yl)amino)-methyl)pyrazin-2-yl)-N-methylmethanesulfonamide]",1.4,89,8.74
"CN(c1nccnc1CNc1nc(Nc2ccc(CNC3CCN(CC4CCN(c5ccc6c(c5)C(=O)N(C5CCC(=O)NC5=O)C6=O)CC4)CC3)cc2)ncc1C(F)(F)F)S(C)(=O)=O (centres unmarked) [Compound A6, N-(3-(((2-((4-(((1-((1-(2-(2,6-Dioxopiperidin-3-yl)-1,3-dioxoisoindolin-5-yl)-piperidin-4-yl)methyl)piperidin-4-yl)amino)methyl)phenyl)amino)-5-(trifluoromethyl)pyrimidin-4-yl)amino)methyl)pyrazin-2-yl)-N-methylmethanesulfonamide]",2.5,99,9.41
"CN(c1nccnc1CNc1nc(Nc2ccc(CNC3CCN(c4ccc5c(c4)C(=O)N(C4CCC(=O)NC4=O)C5=O)CC3)cc2)ncc1C(F)(F)F)S(C)(=O)=O (centres unmarked) [Compound A7, N-(3-(((2-((4-(((1-(2-(2,6-Dioxopiperidin-3-yl)-1,3-dioxoisoindolin-5-yl)-piperidin-4-yl)amino)methyl)phenyl)amino)-5-(trifluoromethyl)pyrimidin-4-yl)amino)methyl)-pyrazin-2-yl)-N-methylmethanesulfonamide]",0.6,99,9.33
"CNC(=O)c1ccccc1Nc1nc(Nc2ccc(CCN3CCN(c4ccc5c(c4)C(=O)N(C4CCC(=O)NC4=O)C5=O)CC3)c(F)c2)ncc1C(F)(F)F (centres unmarked) [Compound A44, 2-((2-((4-(2-(4-(2-(2,6-dioxopiperidin-3-yl)-1,3-dioxoisoindolin-5-yl)piperazin-1-yl)ethyl)-3-fluorophenyl)amino)-5-(trifluoromethyl)pyrimidin-4-yl)amino)-N-methylbenzamide]",0.96,92,
"COc1cc(CNC2CCN(c3ccc4c(c3)C(=O)N(C3CCC(=O)NC3=O)C4=O)CC2)c(F)cc1Nc1ncc(C(F)(F)F)c(Oc2cccc3c2C(=O)N(C)C3)n1 (centres unmarked) [Compound A52, 2-(2,6-Dioxopiperidin-3-yl)-5-(4-((2-fluoro-5-methoxy-4-((4-((2-methyl-3-oxoisoindolin-4-yl)oxy)-5-(trifluoromethyl)pyrimidin-2-yl)amino)benzyl)amino)piperidin-1-yl)-isoindoline-1,3-dione]",0.78,95,
"CNC(=O)c1ccccc1Nc1cc(Nc2cc(F)c(CNC3CCN(c4ccc5c(c4)C(=O)N(C4CCC(=O)NC4=O)C5=O)CC3)cc2OC)ncc1C(F)(F)F (centres unmarked) [Compound A54, 2-((2-((4-(((1-(2-(2,6-Dioxopiperidin-3-yl)-1,3-dioxoisoindolin-5-yl)piperidin-4-yl)amino)methyl)-5-fluoro-2-methoxyphenyl)amino)-5-(trifluoromethyl)pyridin-4-yl)amino)-N-methylbenzamide]",0.98,96,
"CN1Cc2cccc(Oc3nc(Nc4ccc(CN[C@@H]5CCN(c6ccc7c(c6)C(=O)N(C6CCC(=O)NC6=O)C7=O)C5)c(F)c4)ncc3C(F)(F)F)c2C1=O (stereo partly drawn) [Compound A57, 2-(2,6-Dioxopiperidin-3-yl)-5-((R)-3-((2-fluoro-4-((4-((2-methyl-3-oxoisoindolin-4-yl)oxy)-5-(trifluoromethyl)pyrimidin-2-yl)amino)benzyl)amino)pyrrolidin-1-yl)isoindoline-1,3-dione]",1,86,
"COc1cc(CN[C@@H]2CCN(c3ccc4c(c3)C(=O)N(C3CCC(=O)NC3=O)C4=O)C2)c(F)cc1Nc1ncc(C(F)(F)F)c(Oc2cccc3c2C(=O)N(C)C3)n1 (stereo partly drawn) [Compound A58, 2-(2,6-Dioxopiperidin-3-yl)-5-((R)-3-((2-fluoro-5-methoxy-4-((4-((2-methyl-3-oxoisoindolin-4-yl)oxy)-5-(trifluoromethyl)pyrimidin-2-yl)amino)benzyl)amino)pyrrolidin-1-yl)isoindoline-1,3-dione]",0.9,84,
"CN(c1nccnc1CNc1nc(Nc2ccc(CNC3CCN(c4ccc(C5CCC(=O)NC5=O)cc4)CC3)cc2)ncc1C(F)(F)F)S(C)(=O)=O (centres unmarked) [Compound B1, N-(3-(((2-((4-(((1-(4-(2,6-Dioxopiperidin-3-yl)phenyl)piperidin-4-yl)amino)-methyl)phenyl)amino)-5-(trifluoromethyl)pyrimidin-4-yl)amino)methyl)pyrazin-2-yl)-N-methyl-methanesulfonamide]",1.2,92,
"CNC(=O)c1ccccc1Nc1nc(Nc2ccc(CNC3CCN(c4ccc(C5CCC(=O)NC5=O)cc4)CC3)cc2)ncc1C(F)(F)F (centres unmarked) [Compound B2, 2-((2-((4-(((1-(4-(2,6-Dioxopiperidin-3-yl)phenyl)piperidin-4-yl)amino)methyl)-phenyl)amino)-5-(trifluoromethyl)pyrimidin-4-yl)amino)-N-methylbenzamide]",0.2,98,
